Laboratory results reported in ChEMBL document CHEMBL1138245, “Discovery of N1-(6-chloroimidazo[2,1-b][1,3]thiazole-5-sulfonyl)tryptamine as a potent, selective, and orally active 5-HT(6) receptor agonist” (J Med Chem, 2007).

Columns and labels:
[1] = target: T1, 5-hydroxytryptamine receptor 6 (Homo sapiens, UniProt P50406); assay: Displacement of [3H]LSD from human 5HT6 receptor expressed in HeLa cells; format: cell-based
[2] = target: T1, 5-hydroxytryptamine receptor 6; assay: Antagonist activity at human 5HT6 receptor expressed in HeLa cells assessed as cAMP production; format: functional, cell-based
[3] = target: T1, 5-hydroxytryptamine receptor 6; assay: Agonist activity at human 5HT6 receptor expressed in HeLa cells assessed as cAMP production; format: functional, cell-based

T1 sequence (P50406 whole entry): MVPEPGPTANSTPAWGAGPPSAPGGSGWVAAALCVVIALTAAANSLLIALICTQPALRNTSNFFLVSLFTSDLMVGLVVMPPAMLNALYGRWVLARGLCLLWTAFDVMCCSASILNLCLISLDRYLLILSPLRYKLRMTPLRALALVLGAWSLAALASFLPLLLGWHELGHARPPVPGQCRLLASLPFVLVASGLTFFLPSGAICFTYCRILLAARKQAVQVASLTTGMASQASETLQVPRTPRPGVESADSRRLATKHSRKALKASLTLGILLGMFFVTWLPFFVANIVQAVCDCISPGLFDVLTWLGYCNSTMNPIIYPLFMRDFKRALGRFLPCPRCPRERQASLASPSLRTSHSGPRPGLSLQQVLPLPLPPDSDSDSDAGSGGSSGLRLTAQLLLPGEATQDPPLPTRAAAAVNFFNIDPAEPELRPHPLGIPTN

Row | Compound | Ki [1] | IC50 [2] | Imax [2] | EC50 [3] | Emax [3]
1 | COc1ccc(S(=O)(=O)n2cc(CCN)c3ccccc32)cc1 | 47 nM | – | – | – | –
2 | NCCc1cn(S(=O)(=O)c2ccc(F)cc2)c2ccccc12 | 21 nM | – | – | – | –
3 | CN(C)CCn1cc(S(=O)(=O)c2cccc(F)c2)c2ccccc21 | 10.3 nM | – | – | – | –
4 | NCCc1cn(S(=O)(=O)c2ccc(Cl)c(Cl)c2)c2ccccc12 | 30 nM | – | – | – | –
5 | CN1C=C(S(=O)(=O)n2cc(CCN)c3ccccc32)SC1N (configuration not stated) | 10 nM | 9.6 nM | 83% | – | –
6 | NCCc1cn(S(=O)(=O)c2cc(Cl)c(Cl)s2)c2ccccc12 | 31 nM | – | – | – | –
7 | NCCc1cn(S(=O)(=O)c2ccc(Br)s2)c2ccccc12 | 7 nM | – | – | 54 nM | 72%
8 | Cc1ccc(S(=O)(=O)n2cc(CCN)c3ccccc32)cc1 | 8 nM | – | – | 191 nM | 87.5%
9 | NCCc1cn(S(=O)(=O)c2ccc(N)cc2)c2ccccc12 | 1 nM | – | – | 91 nM | 73%
